Structures can show the parent of a compound that is named as a salt.
What follows are molecules tested on T1, primary mouse cortical neurons (assay: cells). Details: Cortical neurone, 20 h, read-out: % inhibition, inhibition of NMDA-induced cell death (protection score), 30 min pre-treatment.
T1 construct: primary cortical neurons, DIV 10
Parameters: Protection from NMDA-induced (30 uM, 10 min) neuronal death; Hoechst nuclear morphology by automated microscopy
Method in brief: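 On DIV 10, primary mouse cortical neurons were given compound at 10 μM for 30 min at 37 °C, then 30 μM NMDA for 10 min, washed, and kept 20 h with compound. Dead cells were scored by nuclear morphology, and % protection was derived from survival relative to vehicle + NMDA and untreated controls.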

Row | SMILES | inhibition at 10 µM [%]
1 | C[C@@H]1CC[C@@]2(OC1)O[C@H]1C[C@H]3[C@@H]4CC=C5C[C@@H](O[C@@H]6O[C@H](CO)[C@@H](O[C@@H]7O[C@@H](C)[C@H](O)[C@@H](O)[C@H]7O)[C@H](O)[C@H]6O[C@@H]6O[C@@H](C)[C@H](O)[C@@H](O)[C@H]6O)CC[C@]5(C)[C@H]4CC[C@]3(C)[C@H]1[C@@H]2C [Dioscin (Collettiside III)] | 32.2
2 | C[C@@H]1CC[C@@]2(OC1)O[C@H]1C[C@H]3[C@@H]4CC=C5C[C@@H](O)CC[C@]5(C)[C@H]4CC[C@]3(C)[C@H]1[C@@H]2C [Diosgenin] | -1.47
3 | COc1ccc(-c2cc(=O)c3c(O)cc(O)cc3o2)cc1O [Diosmetin (Luteolin 4-methyl ether)] | 8.81
4 | COc1ccc(-c2cc(=O)c3c(O)cc(O[C@@H]4O[C@H](CO[C@@H]5O[C@@H](C)[C@H](O)[C@@H](O)[C@H]5O)[C@@H](O)[C@H](O)[C@H]4O)cc3o2)cc1O [Diosmin] | -0.0881
5 | CN(C)CCOC(c1ccccc1)c1ccccc1 [Diphenhydramine HCl (Benadryl)] | 1.97
6 | OCCN(CCO)c1nc(N2CCCCC2)c2nc(N(CCO)CCO)nc(N3CCCCC3)c2n1 [Dipyridamole (Persantine)] | -3.58
7 | CCN(CC)C(=S)SSC(=S)N(CC)CC [Disulfiram (Antabuse)] | -13.6
8 | CCCC(CCC)C(=O)O [Divalproex sodium] | 3.49
9 | CC(=O)O[C@@]12CO[C@@H]1C[C@H](O)[C@@]1(C)C(=O)[C@H](O)C3=C(C)[C@@H](OC(=O)[C@H](O)[C@@H](NC(=O)OC(C)(C)C)c4ccccc4)C[C@@](O)([C@@H](OC(=O)c4ccccc4)[C@H]21)C3(C)C [Docetaxel (Taxotere)] | -4.27
10 | O=c1[nH]c2ccccc2n1CCCN1CCC(n2c(=O)[nH]c3cc(Cl)ccc32)CC1 [Domperidone (Motilium)] | -9.12
11 | COc1cc2c(cc1OC)C(=O)C(CC1CCN(Cc3ccccc3)CC1)C2 (stereo not shown) [Donepezil HCl (Aricept)] | -8.98
12 | NCCc1ccc(O)c(O)c1 [Dopamine hydrochloride (Inotropin)] | -1.44
13 | C[C@@H](O)[C@H]1C(=O)N2C(C(=O)O)=C(S[C@@H]3CN[C@H](CNS(N)(=O)=O)C3)[C@H](C)[C@H]12 [Doripenem Hydrate] | -0.0213
14 | CCN[C@H]1C[C@H](C)S(=O)(=O)c2sc(S(N)(=O)=O)cc21 [Dorzolamide HCL] | 0.0606
15 | C[C@]12CCC(=O)C=C1[C@@H]1C[C@@H]1[C@H]1[C@@H]3[C@@H]4C[C@@H]4[C@@]4(CCC(=O)O4)[C@@]3(C)CC[C@@H]12 [Drospirenone] | -0.385
16 | C[C@]12C=CC(=O)N[C@@H]1CC[C@@H]1[C@@H]2CC[C@]2(C)[C@@H](C(=O)Nc3cc(C(F)(F)F)ccc3C(F)(F)F)CC[C@@H]12 [Dutasteride] | 113
17 | Cn1c(=O)c2c(ncn2CC(O)CO)n(C)c1=O (stereo not shown) [Dyphylline (Dilor)] | -0.361
18 | C[C@H]([C@H](O)CCC(C)(C)O)[C@H]1CC[C@@]2(O)C3=CC(=O)[C@@H]4C[C@@H](O)[C@@H](O)C[C@]4(C)[C@H]3CC[C@]12C [Ecdysone] | 0.187
19 | Clc1ccc(COC(Cn2ccnc2)c2ccc(Cl)cc2Cl)cc1 (stereo not shown) [Econazole nitrate (Spectazole)] | -2.25
20 | Cc1ccc(-n2[nH]c(C)c(N=Nc3cccc(-c4cccc(C(=O)O)c4)c3O)c2=O)cc1C [Eltrombopag (SB-497115-GR)] | 93.9
21 | COc1cc2c(cc1Cc1cccc(Cl)c1F)c(=O)c(C(=O)O)cn2[C@H](CO)C(C)C [Elvitegravir (GS-9137)] | 89.3
22 | Cc1cc(O)c2c(c1)C(=O)c1cc(O)cc(O)c1C2=O [Emodin] | -4.08
23 | Nc1nc(=O)n([C@@H]2CS[C@H](CO)O2)cc1F [Emtricitabine (Emtriva)] | 14.4

Row | SMILES | inhibition at 10 µM [%]
24 | CCOC(=O)[C@H](CCc1ccccc1)N[C@@H](C)C(=O)N1CCC[C@H]1C(=O)O [Enalapril maleate (Vasotec)] | 54.5
25 | C[C@H](N[C@@H](CCc1ccccc1)C(=O)O)C(=O)N1CCC[C@H]1C(=O)O [Enalaprilat dihydrate] | -4.34
26 | CC1(C)[C@@H](O)CC[C@]2(C)[C@H]3C(=O)C=C4[C@@H]5C[C@@](C)(C(=O)O)CC[C@]5(C)CC[C@@]4(C)[C@]3(C)CC[C@@H]12 [Enoxolone (Glycyrrhetin)] | -0.00685
27 | C=C1[C@H](CO)[C@@H](O)C[C@@H]1n1cnc2c(=O)[nH]c(N)nc21 [Entecavir hydrate] | 3.22
28 | CNC[C@H](O)c1ccc(O)c(O)c1 [Epinephrine bitartrate (Adrenalinium)] | -0.43
29 | COC(=O)[C@@H]1CC2=CC(=O)CC[C@]2(C)[C@@]23O[C@@H]2C[C@@]2(C)[C@@H](CC[C@@]24CCC(=O)O4)[C@H]13 [Eplerenone] | 6.59
30 | O=C(O)CSCC(=O)NC1CCSC1=O (stereo not shown) [Erdosteine] | -0.838
31 | CC(C)[C@@H](C)/C=C/[C@@H](C)[C@H]1CC[C@H]2C3=CC=C4C[C@@H](O)CC[C@]4(C)[C@H]3CC[C@]12C [Ergosterol] | -1.47
32 | C#Cc1cccc(Nc2ncnc3cc(OCCOC)c(OCCOC)cc23)c1 [Erlotinib HCl] | 22.9
33 | CC[C@H]1OC(=O)[C@H](C)[C@@H](O[C@H]2C[C@@](C)(OC)[C@@H](O)[C@H](C)O2)[C@H](C)[C@@H](O[C@@H]2O[C@H](C)C[C@H](N(C)C)[C@H]2O)[C@](C)(O)C[C@@H](C)C(=O)[C@H](C)[C@@H](O)[C@]1(C)O [Erythromycin (E-Mycin)] | 29.4
34 | COc1ccc2[nH]c([S@@+]([O-])Cc3ncc(C)c(OC)c3C)nc2c1 [Esomeprazole sodium (Nexium)] | 21.3
35 | C[C@]12CC[C@@H]3c4ccc(O)cc4CC[C@H]3[C@@H]1CC[C@@H]2O [Estradiol] | 4.78
36 | C[C@]12CC[C@@H]3c4ccc(O)cc4CC[C@H]3[C@@H]1CCC2=O [Estrone] | -2.18
37 | C#C[C@]1(O)CC[C@H]2[C@@H]3CCc4cc(O)ccc4[C@H]3CC[C@@]21C [Ethinyl estradiol] | 57.3
38 | CCc1cc(C(N)=S)ccn1 [Ethionamide] | 27.7
39 | CCc1cccc2c3c([nH]c12)C(CC)(CC(=O)O)OCC3 (stereo not shown) [Etodolac (Lodine)] | 9.68
40 | COc1cc([C@@H]2c3cc4c(cc3[C@@H](O[C@@H]3O[C@@H]5CO[C@@H](C)O[C@H]5[C@H](O)[C@H]3O)[C@H]3COC(=O)[C@H]23)OCO4)cc(OC)c1O [Etoposide (VP-16)] | -11.8
41 | O=C(c1ccc(OCCN2CCCCC2)cc1)c1c(-c2ccc(O)cc2)sc2cc(O)ccc12 [Evista (Raloxifene Hydrochloride)] | -19.3
42 | CN1c2ccccc2C(=O)N2CCc3c([nH]c4ccccc34)[C@H]21 [Evodiamine (Isoevodiamine)] | 0.0207
43 | C=C1C[C@@H]2[C@H](CC[C@]3(C)C(=O)CC[C@@H]23)[C@@]2(C)C=CC(=O)C=C12 [Exemestane] | -1.67
44 | O=C1[C@H](CC[C@H](O)c2ccc(F)cc2)[C@@H](c2ccc(O)cc2)N1c1ccc(F)cc1 [Ezetimibe (Zetia)] | 21.4
45 | Cc1nc(-c2ccc(OCC(C)C)c(C#N)c2)sc1C(=O)O [Febuxostat (Uloric)] | -0.186
46 | CCOC(=O)C1=C(C)NC(C)=C(C(=O)OC)C1c1cccc(Cl)c1Cl (stereo not shown) [Felodipine (Plendil)] | -1.75

From article PMC7489219 (Molecular Brain, 2020)
